Reference: paper PMC8501045, “Addressing MRSA infection and antibacterial resistance with peptoid polymers” (Nature Communications, 2021)
In brackets after ≈: the same amount, converted by molar mass. Several values for one entry are separate records, joined by “and”; a condition that tells them apart may be missing. Identical values can stand only once. Like-named read-outs stand apart in the source and are kept apart here.

Tests used:
L. monocytogenes 1001 = assay: MIC assay, clinical isolate; format: cell-based, Listeria monocytogene; conditions: Listeria monocytogenes
Procedure: (§1) MRSA (S. aureus Mu50, S. aureus Newman, S. aureus USA400, S. aureus USA300 LAC, S. aureus USA300) were obtained from Shanghai Institute of Materia Medica, Chinese Academy of Sciences. All clinically isolated Gram-positive bacteria used in this study were isolated from patients with various infections, different ages and sexes in the Shanghai Ruijin Rehabilitation Hospital. All strains were cultured in Luria-Bertani (LB) medium at 37 °C before use.
(§2) Bacteria were cultured in LB medium at 37 °C for 10 h, and then the bacterial suspension was diluted in Mueller–Hinton (MH) medium to a cell density of 2 × 10^5 colony forming units (CFU)/mL as the working suspension. The poly(Naeg)20 was serially diluted by MH medium in a 96-well plate, and an equal volume of bacterial suspension was added into each well. The final concentration of the poly(Naeg)20 was ranging from 200 to 1.56 μg/mL, and the plates were incubated at 37 °C for 9 h. Wells with inoculum and no polymer were used as the positive control; wells with only MH medium were used as the blank. The optical density (OD) in each well was measured on a Molecular Devices SpectraMax M2 precision microplate reader. The percentage of bacteria growth was calculated from1 %cellgrowth=A600polymer-A600blank/A600control-A600blank×100
(§3) The test was independently repeated at least three times.

S. haemolyticus 0202 = assay: MIC assay, clinical isolate; format: cell-based; conditions: Staphylococcus haemolyticus; clinical isolate S. haemolyticus 0202; read-out: MIC
Procedure: as §1, §2, §3

S. agalactiae 0613 = assay: MIC assay, clinical isolate; format: cell-based; conditions: Streptococcus agalactiae; clinical isolate S. agalactiae 0613; read-out: MIC
Procedure: as §1, §2, §3

E. faecium 0610 = assay: MIC assay, clinical isolate; format: cell-based; conditions: Enterococcus faecium; clinical isolate E. faecium 0610; read-out: MIC
Procedure: as §1, §2, §3

S. haemolyticus 1303 = assay: MIC assay, clinical isolate; format: cell-based; conditions: Staphylococcus haemolyticus; clinical isolate S. haemolyticus 1303; read-out: MIC
Procedure: as §1, §2, §3

S. epidermidis 9397 = assay: MIC assay, clinical isolate; format: cell-based; conditions: Staphylococcus epidermidis; clinical isolate S. epidermidis 9397; read-out: MIC
Procedure: as §1, §2, §3

E. faecium 2504 = assay: MIC assay, clinical isolate; format: cell-based; conditions: Enterococcus faecium; clinical isolate E. faecium 2504; read-out: MIC
Procedure: as §1, §2, §3

E. faecium 0502 = assay: MIC assay, clinical isolate; format: cell-based; conditions: Enterococcus faecium; clinical isolate E. faecium 0502; read-out: MIC
Procedure: as §1, §2, §3

E. faecalis 2305 = assay: MIC assay, clinical isolate; format: cell-based; conditions: Enterococcus faecalis
Procedure: as §1, §2, §3

S. aureus 2904 = assay: MIC assay, clinical isolate; format: cell-based; conditions: Staphylococcus aureus; clinical isolate S. aureus 2904; read-out: MIC
Procedure: as §1, §2, §3

E. faecium 0609 = assay: MIC assay, clinical isolate; format: cell-based; conditions: Enterococcus faecium; clinical isolate E. faecium 0609; read-out: MIC
Procedure: as §1, §2, §3

S. aureus 2902 = assay: MIC assay, clinical isolate; format: cell-based; conditions: Staphylococcus aureus; clinical isolate S. aureus 2902; read-out: MIC
Procedure: as §1, §2, §3

S. epidermidis 0501 = assay: MIC assay, clinical isolate; format: cell-based; conditions: Staphylococcus epidermidis; clinical isolate S. epidermidis 0501; read-out: MIC
Procedure: as §1, §2, §3

E. faecium 1205 = assay: MIC assay, clinical isolate; format: cell-based; conditions: Enterococcus faecium; clinical isolate E. faecium 1205; read-out: MIC
Procedure: as §1, §2, §3

S. aureus 2802 = assay: MIC assay, clinical isolate; format: cell-based; conditions: Staphylococcus aureus; clinical isolate S. aureus 2802; read-out: MIC
Procedure: as §1, §2, §3

S. haemolyticus 1107 = assay: MIC assay, clinical isolate; format: cell-based; conditions: Staphylococcus haemolyticus; clinical isolate S. haemolyticus 1107; read-out: MIC
Procedure: as §1, §2, §3

S. aureus 2202 = assay: MIC assay, clinical isolate; format: cell-based; conditions: Staphylococcus aureus; clinical isolate S. aureus 2202; read-out: MIC
Procedure: as §1, §2, §3

E. faecalis 0609 = assay: MIC assay, clinical isolate; format: cell-based; conditions: Enterococcus faecalis
Procedure: as §1, §2, §3

[1] = system: S. aureus USA300 biofilm formation; assay: Inhibition study on biofilm formation; format: cell-based, Staphylococcus aureus
Procedure: The plate was incubated at 37 °C for 24 h, and then the culture medium was removed, washed with PBS once, followed by adding 100 µL MTT solution (0.5 mg/mL) into the corresponding well. After further incubation at 37 °C for 4 h in the dark, the MTT solution was removed. An aliquot of 100 μL DMSO was added to each well to solubilize the purple solid and then the OD value was collected at 570 nm on a microplate reader. Wells containing inoculum and without antibacterial agents were used as the positive control; wells containing only MH medium were used as the blank. The percentage of surviving cells within biofilm was calculated from4 %cellviability=A570polymer-A570blank/A570control-A570blank×100
as §3

S. aureus ATCC6538 [2] = assay: Bacterial killing kinetics; format: cell-based, Staphylococcus aureus; conditions: 2×MBC (Figure S40)
S. aureus ATCC6538 [3] = format: cell-based, Staphylococcus aureus; conditions: after 375 passages
Procedure: The antimicrobial-resistance test was conducted according to the previously reported method with slight modification. […] An aliquot of 2.5 μL of the mixture was sampled and diluted 400-fold in LB medium for a new cell-drug incubation cycle. The above cycle was repeated every 24 h. […] Generation of bacteria growth was calculated from incubating time and bacteria growth kinetics described below.

[4] = system: S. aureus USA300 mature biofilm; assay: Activity against mature biofilm; format: cell-based, Staphylococcus aureus; conditions: for Biofilm survival(%): norfloxacin, r4-r9 = 64, 128, 256, 512, 1024, 2048 MIC
Procedure: The plate was incubated at 37 °C for 24 h to allow biofilm formation. […] Then MTT assay was used to determine the biofilm viability. Wells containing inoculum and without antibacterial agents were used as the positive control; wells containing only MH medium were used as the blank. The percentage of surviving cells within biofilm was calculated from5 %cellviability=A570polymer-A570blank/A570control-A570blank×100
as §3

[5] = clinical isolate L. monocytogenes 1001, read-out: MIC
[6] = clinical isolate E. faecalis 2305, read-out: MIC

Row | Structure (SMILES) | MIC (L. monocytogenes 1001; [5]) [µg/mL] | MIC (S. haemolyticus 0202) [µg/mL] | MIC (S. agalactiae 0613) [µg/mL] | MIC (E. faecium 0610) [µg/mL] | MIC (S. haemolyticus 1303) [µg/mL] | MIC (S. epidermidis 9397) [µg/mL] | MIC (E. faecium 2504) [µg/mL] | MIC (E. faecium 0502) [µg/mL] | MIC (S. aureus 2904) [µg/mL] | MIC (E. faecium 0609) [µg/mL] | MIC (S. aureus 2902) [µg/mL] | MIC (S. epidermidis 0501) [µg/mL] | MIC (E. faecium 1205) [µg/mL] | MIC (S. aureus 2802) [µg/mL] | MIC (S. haemolyticus 1107) [µg/mL] | MIC (S. aureus 2202) [µg/mL] | MIC (E. faecalis 0609; 0609) [µg/mL] | MIC (E. faecalis 2305; [6]) [µg/mL] | time to kill 90% of S. aureus (S. aureus ATCC6538 [2]) [h] | further results
1 | CC1(C)S[C@@H]2[C@H](NC(=O)[C@H](N)c3ccccc3)C(=O)N2[C@H]1C(=O)O [Ampicillin] | 1.56 (≈ 4.46 µM) | 200 (≈ 572 µM) | 0.39 (≈ 1.12 µM) | > 200 | 200 (≈ 572 µM) | 0.39 (≈ 1.12 µM) | 100 (≈ 286 µM) | > 200 | 25 (≈ 71.5 µM) | > 200 | 25 (≈ 71.5 µM) | 6.25 (≈ 17.9 µM) | > 200 | 25 (≈ 71.5 µM) | > 200 | 1.56 (≈ 4.46 µM) | 3.13 (≈ 8.96 µM) | – | – | MIC (E. faecalis 2305; 2305): 12.5 µg/mL (≈ 35.8 µM)
2 | COc1cccc(OC)c1C(=O)N[C@@H]1C(=O)N2[C@@H]1SC(C)(C)[C@@H]2C(=O)O [Methicillin] | 25 (≈ 65.7 µM) | 200 (≈ 526 µM) | 1.56 (≈ 4.1 µM) | > 200 | > 200 | 1.56 (≈ 4.1 µM) | > 200 | > 200 | 6.25 (≈ 16.4 µM) | > 200 | 12.5 (≈ 32.9 µM) | 12.5 (≈ 32.9 µM) | > 200 | 6.25 (≈ 16.4 µM) | > 200 | 3.13 (≈ 8.23 µM) | – | > 200 | – | MIC (E. faecalis 0609; clinical isolate E. faecalis 0609, read-out: MIC): 50 µg/mL (≈ 131 µM)
3 | CCn1cc(C(=O)O)c(=O)c2cc(F)c(N3CCNCC3)cc21 [Norfloxacin] | – | 100 (≈ 313 µM) | 25 (≈ 78.3 µM) | 200 (≈ 626 µM) | 25 (≈ 78.3 µM) | 0.2 (≈ 0.626 µM) | 200 (≈ 626 µM) | 100 (≈ 313 µM) | 200 (≈ 626 µM) | > 200 | 25 (≈ 78.3 µM) | 0.2 (≈ 0.626 µM) | 100 (≈ 313 µM) | 200 (≈ 626 µM) | 100 (≈ 313 µM) | 50 (≈ 157 µM) | 1.56 (≈ 4.89 µM) | 25 (≈ 78.3 µM) | 2 to 3 | concentration required to inhibit the formation of S. aureus biofilm [1]: 64 × MIC; increase of MBC (S. aureus ATCC6538 [3]): 1024 times; MIC (L. monocytogenes 1001; 1001): 1.56 µg/mL (≈ 4.89 µM); concentration that eradicates mature biofilms of S. aureus [4]: > 2048 × MIC; Biofilm survival(%) ([4]; replicate 1): 91.6463% and 85.7695% and 83.8544% and 89.6297% and 72.4394% and 55.1024%; Biofilm survival(%) ([4]; replicate 2): 89.0013% and 75.6713% and 82.9402% and 81.0138% and 70.6748% and 61.6339%; Biofilm survival(%) ([4]; replicate 3): 91.3528% and 81.8867% and 88.4821% and 86.774% and 64.2036% and 56.0543%
4 | C[C@H]1COc2c(N3CCN(C)CC3)c(F)cc3c(=O)c(C(=O)O)cn1c23 [levofloxacin] | – | – | – | – | – | – | – | – | – | – | – | – | – | – | – | – | – | – | 2 to 3 | –
